Values of other authors in US20200225249A1, “COMPOSITIONS AND METHODS FOR THE DIAGNOSIS AND TREATMENT OF DISEASES OF THE LIVER” (Viscient Biosciences, Inc., priority 2019, published 2020).

Assays:
NASH patients = settings: clinical trial; Laurin J, et al., 1996
QPRT = settings: rat hepatocytes; Shin M, et al., 1999
rat hepatocytes = settings: Shin M, et al., 1999
[1] = test system: primary neurons and astrocytes; settings: Braidy et al, 2011

| SMILES | symptoms of NASH patients (NASH patients) | QPRT expression (QPRT) | NAD+ levels (rat hepatocytes) | cell viability [1] |
| --- | --- | --- | --- | --- |
| CCOC(=O)C(C)(C)Oc1ccc(Cl)cc1 [Clofibrate] | failed to improve the symptoms | stimulates QPRT expression | increases NAD+ levels |  |
| O=C(O)c1ccccc1C(=O)O [Phthalic acid, 1,2-Benzenedicarboxylic acid] |  |  |  | reduced cell viability |
